Test results: PMC10783051 (Microbiology Spectrum, 2023)

Test system: S. venezuelae supernatant (secreted enzymes)
Test: In vitro degradation of CLPs by S. venezuelae cell-free supernatant
Type: in vitro ADME, Streptomyces venezuelae ATCC 10712
Details: pure CLPs (100 µM) incubated 24 h at 30°C with 4% (vol/vol) Sv CFS (grown on ISP2, 0.22-µm filtered), shaking 180 rpm; UPLC-MS/MS with feature-based molecular networking
Protocol: S. venezuelae cultures were performed on ISP2 medium at 28°C (yeast extract 4 g/L, malt extract 10 g/L, glucose 4 g/L, agar 20 g/L; pH 7.3). On 12 × 12 cm Petri square plates, three stripes (1 × 12 cm) of spores were inoculated with a cotton swab [40 µL of spores suspension (10^7 spores/mL) each], spaced by 3 cm each. The plates were left for 7 days of incubation. Next, the agar media was recovered and placed in Falcon tubes at −20°C for 24 h. Then, the agar media were defrosted at room temperature and centrifuged (8,000 rpm for 20 min). Finally, the supernatant leaked from the agar was collected, filtered sterilized (0.22-µm pore size filters) and stored at −20°C until further use. The heat-treated Sv supernatant was generated by incubating an aliquot of the cell-free supernatant of Sv for 10 min at 98°C. The supernatant was then filtered (0.22-µm pore size filters) and stored at −20°C until further use.
[…] Then the solutions were incubated for 24 h at 30°C with continuous shaking (180 rpm). Next, the solution were centrifuged (1 min at 10,000 rpm), filtered (0.22-µm pore size filters), and analyzed by UPLC-MS.
The degradation assays of Pseudomonas CLPs were performed using CFS generated as described above. They were supplemented by 4% (vol/vol) of S. venezuelae CFS prepared as described previously. Next, the solutions were incubated for 24 h at 30°C with continuous shaking (180 rpm). Then, the solution were centrifuged (1 min at 10,000 rpm), filtered (0.22-µm pore size filters), and analyzed by UPLC-MS.
For the CLP degradation kinetic experiments, surfactin, iturin, and fengycin solutions supplemented with S. venezuelae supernatant were prepared following the same protocol. Twenty microliters of solution was sampled at each time point and directly mixed with 80 µL of acetonitrile to stop enzymatic degradation. Finally, they were stored at −20°C until analysis by UPLC-MS.
All UPLC-MS analyses were performed using an Agilent 1290 Infinity II coupled with a diode array detector and a mass detector (Jet Stream ESI-Q-TOF 6530) in positive mode with the parameters set up as follows: capillary voltage of 3.5 kV, nebulizer pressure of 35 lb/in^2, drying gas of 8 L/min, drying gas temperature of 300°C, flow rate of sheath gas of 11 L/min, sheath gas temperature of 350°C, fragmentor voltage of 175 V, skimmer voltage of 65 V, and octopole radiofrequency of 750 V. Accurate mass spectra were recorded in the m/z range of 300–1,700. For untargeted MS/MS, we used the same MS1 parameters as described. We added MS2 untargeted acquisition mode with the parameters as follows: MS/MS range 50–1,700 m/z; MS/MS scan rate 3 spectra/s; isolation width MS/MS medium (approx. 4 AMU), Decision Engine Native; fixed collision energies of 25 and 40 V for surfactin, 50 V for iturin, and 60 V for fengycin experiments; precursor selection: three for the surfactin experiment, four for the iturin and fengycin experiments, threshold 1,500 (Abs), isotope model common, active exclusion after two spectra and release after 0.5 min, sorting the precursors by charge state then abundance (charge state preference 1). For targeted MS/MS, we used the same MS1 parameters MS/MS range of 50–1,700 m/z or 50–3,200 (when required for Pseudomonas CLPs with mass >1,700 Da), MS/MS scan rate 3 spectra/s, isolation width MS/MS narrow (approx. 1.3 amu), and fixed collision energies 20, 40, and 60V. In all experiments, a C18 Acquity UPLC ethylene bridged hybrid column (2.1 mm × 50 mm × 1.7 µm; Waters Corporation, Milford, MA, USA) was used at a flow rate of 0.6 mL/min and a temperature of 40°C. The injection volume was 20 µL, and the diode array detector scanned a wavelength spectrum between 190 and 600 nm. Unless otherwise mentioned, a gradient of acidified water (0.1% formic acid) (solvent A) and of acidified acetonitrile (0.1% formic acid) (solvent B) was used as mobile phase with a constant flow rate of 0.6 mL/min, starting at 10% B and rising to 100% B in 20 min. […]

## iturin
  degradation of pure Bacillus CLPs by Sv CFS: degrades
